Key:
[1] = Inhibition of gamma-secretase mediated cleavage of Notch 1 in human A375 cells assessed as nuclear accumulation of Notch 1 intracellular domain (N1ICD) after 24 hrs by ELISA; type: cell-based; settings: A-375, 24 h
[2] = Inhibition of gamma-secretase mediated cleavage of Notch 1 in human K562 cells assessed as nuclear accumulation of Notch 1 intracellular domain (N1ICD) after 24 hrs by ELISA; type: cell-based; settings: K562, 24 h
[3] = Inhibition of gamma-secretase mediated cleavage of Notch 1 in human MOLT-3 cells assessed as nuclear accumulation of Notch 1 intracellular domain (N1ICD) after 24 hrs by ELISA; type: cell-based; settings: MOLT-3, 24 h
[4] = Inhibition of gamma-secretase mediated cleavage of Notch 1 in human Jurkat cells assessed as nuclear accumulation of Notch 1 intracellular domain (N1ICD) after 24 hrs by ELISA; type: cell-based
[5] = Inhibition of gamma-secretase mediated cleavage of Notch 1 in human CCRF-CEM cells assessed as nuclear accumulation of Notch 1 intracellular domain (N1ICD) after 24 hrs by ELISA; type: cell-based
[6] = Inhibition of gamma-secretase mediated cleavage of Notch 1 in human MOLT-4 cells assessed as nuclear accumulation of Notch 1 intracellular domain (N1ICD) after 24 hrs by ELISA; type: cell-based; settings: MOLT-4, 24 h
[7] = Inhibition of gamma-secretase mediated cleavage of Notch 1 in human DLD1 cells assessed as nuclear accumulation of Notch 1 intracellular domain (N1ICD) after 24 hrs by ELISA; type: cell-based; settings: DLD-1, 24 h
[8] = Inhibition of gamma-secretase mediated cleavage of transfected mouse Notch 1 (1703-2183) harboring N-terminal 23 aminoacid signal peptide sequence in human HEK293deltaE12 cells assessed as nuclear accumulation of Notch 1 intracellular domain (N1ICD) after 24 hrs by fluorescence cellular imaging analysis; type: cell-based
[9] = Inhibition of gamma-secretase mediated cleavage of Notch 1 in human HCT 116 cells assessed as nuclear accumulation of Notch 1 intracellular domain (N1ICD) after 24 hrs by ELISA; type: cell-based; settings: HCT-116, 24 h
[10] = Inhibition of gamma-secretase mediated cleavage of Notch 1 in human BxPC3 cells assessed as nuclear accumulation of Notch 1 intracellular domain (N1ICD) after 24 hrs by ELISA; type: cell-based; settings: BXPC-3, 24 h
[11] = Inhibition of gamma-secretase mediated cleavage of Notch 1 in human SW480 cells assessed as nuclear accumulation of Notch 1 intracellular domain (N1ICD) after 24 hrs by ELISA; type: cell-based; settings: SW480, 24 h
[12] = Inhibition of gamma-secretase mediated cleavage of Notch 1 in human MIAPaCa2 cells assessed as nuclear accumulation of Notch 1 intracellular domain (N1ICD) after 24 hrs by ELISA; type: cell-based; settings: MIA PaCa-2, 24 h
[13] = Inhibition of gamma-secretase mediated cleavage of Notch 1 in human MDA-MB-231 cells assessed as nuclear accumulation of Notch 1 intracellular domain (N1ICD) after 24 hrs by ELISA; type: cell-based; settings: MDA-MB-231, 24 h
[14] = Inhibition of gamma-secretase mediated cleavage of Notch 1 in human HEL 92.1.7 cells assessed as nuclear accumulation of Notch 1 intracellular domain (N1ICD) after 24 hrs by ELISA; type: cell-based; settings: HEL 92.1.7, 24 h
[15] = Inhibition of gamma-secretase mediated cleavage of Notch 1 in human A2780 cells assessed as nuclear accumulation of Notch 1 intracellular domain (N1ICD) after 24 hrs by ELISA; type: cell-based; settings: A2780, 24 h
[16] = Inhibition of gamma-secretase mediated cleavage of Notch 1 in human U-87-MG cells assessed as nuclear accumulation of Notch 1 intracellular domain (N1ICD) after 24 hrs by ELISA; type: cell-based, U-87MG ATCC
[17] = Inhibition of gamma-secretase mediated cleavage of Notch 1 in human SUP-T1 cells assessed as nuclear accumulation of Notch 1 intracellular domain (N1ICD) after 24 hrs by ELISA; type: cell-based; settings: SUP-T1, 24 h

`C[C@H](NC(=O)CCC(F)(F)F)C(=O)N[C@@H]1C(=O)N(CCO)c2ncccc2-c2ccccc21` [CRENIGACESTAT] gave an IC50 [1] of 480 pM, an IC50 [2] of 740 pM and an IC50 [3] of 610 pM. For the same molecule, the IC50 [4] was 5950 pM, the IC50 [5] was 760 pM and the IC50 [6] was 740 pM. The IC50 [7] was 980 pM, the IC50 [8] was 410 pM and the IC50 [9] was 720 pM. It also gave an IC50 [10] of 390 pM, an IC50 [11] of 100 pM and an IC50 [12] of 710 pM. For the same molecule, the IC50 [13] was 500 pM, the IC50 [14] was 230 pM and the IC50 [15] was 1030 pM. It also gave an IC50 [16] of 280 pM and an IC50 [17] of 1240 pM.
